Test results published in patent publication US7138361B2, “Herbicidal heterocycles” (E. I. du Pont de Nemours and Company, priority 2000, dated 2006).

Columns and labels:
Type in all cases: in vivo
[1] = test system: Surinam grass (Brachiaria decumbens); assay: Test B postemergence
Outline: (§1)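 Visual injury scores, 0 = no effect to 100 = complete control, assigned against controls after 13 to 15 days in the greenhouse. Compounds formulated in non-phytotoxic solvent plus surfactant and applied to soil after planting (pre) or onto foliage of 1- to 4-leaf plants (post).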

[2] = test system: barnyardgrass (Echinochloa crus-galli); assay: Test B postemergence
Outline: as §1

[3] = test system: blackgrass (Alopecurus myosuroides); assay: Test B postemergence
Outline: as §1

[4] = test system: cocklebur (Xanthium strumarium); assay: Test B postemergence
Outline: as §1

corn (Zea mays) [5] = assay: Test B postemergence
Outline: as §1

[6] = test system: crabgrass (Digitaria sanguinalis); assay: Test B postemergence
Outline: as §1

[7] = test system: giant foxtail (Setaria faberii); assay: Test B postemergence
Outline: as §1

[8] = test system: lambsquarters (Chenopodium album); assay: Test B postemergence
Outline: as §1

[9] = test system: morning glory (Ipomoea hederacea); assay: Test B postemergence
Outline: as §1

[10] = test system: pigweed (Amaranthus retroflexus); assay: Test B postemergence
Outline: as §1

[11] = test system: velvetleaf (Abutilon theophrasti); assay: Test B postemergence
Outline: as §1

[12] = test system: wheat (Triticum aestivum); assay: Test B postemergence
Outline: as §1

wild oat (Avena fatua) = assay: Test B postemergence
Outline: as §1

[13] = test system: Surinam grass (Brachiaria decumbens); assay: Test B preemergence
Outline: as §1

[14] = test system: barnyardgrass (Echinochloa crus-galli); assay: Test B preemergence
Outline: as §1

[15] = test system: cocklebur (Xanthium strumarium); assay: Test B preemergence
Outline: as §1

corn (Zea mays) [16] = assay: Test B preemergence
Outline: as §1

[17] = test system: crabgrass (Digitaria sanguinalis); assay: Test B preemergence
Outline: as §1

[18] = test system: giant foxtail (Setaria faberii); assay: Test B preemergence
Outline: as §1

[19] = test system: lambsquarters (Chenopodium album); assay: Test B preemergence
Outline: as §1

[20] = test system: morning glory (Ipomoea hederacea); assay: Test B preemergence
Outline: as §1

[21] = test system: pigweed (Amaranthus retroflexus); assay: Test B preemergence
Outline: as §1

rice (Oryza saliva) [22] = assay: Test B preemergence
Outline: as §1

[23] = test system: velvetleaf (Abutilon theophrasti); assay: Test B preemergence
Outline: as §1

[24] = test system: barnyardgrass (Echinochloa crus-galli); assay: Test C flooded paddy test; details: for Barnyardgrass plant response rating: Flooded Paddy, Rate 500 g/ha, scale 0 to 100, 0 no effect, 100 complete control; for Plant response rating, Barnyardgrass / Plant response rating (scale 0 to 100), Barnyardgrass: flooded paddy test; for Plant response rating, Barnyardgrass: scale 0 to 100 (0 no effect, 100 complete control); for Plant response rating (scale 0 to 100), Barnyardgrass: Rate 62 g/ha, visually evaluated after 12 to 14 days, 0 = no effect, 100 = complete control
Outline: (§2)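 Visually assessed vs untreated controls 12–14 d post-treatment (greenhouse). Flooded paddy plants were at the 2-leaf stage; scale 0 = no effect, 100 = complete control.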

[25] = test system: duck salad (Heteranthera limosa); assay: Test C flooded paddy test; details: for Ducksalad plant response rating: Flooded Paddy, Rate 500 g/ha, scale 0 to 100, 0 no effect, 100 complete control; for Plant response rating, Ducksalad / Plant response rating (scale 0 to 100), Ducksalad: flooded paddy test; for Plant response rating, Ducksalad: scale 0 to 100 (0 no effect, 100 complete control); for Plant response rating (scale 0 to 100), Ducksalad: Rate 62 g/ha, visually evaluated after 12 to 14 days, 0 = no effect, 100 = complete control
Outline: as §2

rice (Oryza saliva) [26] = assay: Test C flooded paddy test; details: for Rice plant response rating: Flooded Paddy, Rate 500 g/ha, scale 0 to 100, 0 no effect, 100 complete control; for Plant response rating, Rice / Plant response rating (scale 0 to 100), Rice: flooded paddy test; for Plant response rating, Rice: scale 0 to 100 (0 no effect, 100 complete control); for Plant response rating (scale 0 to 100), Rice: Rate 62 g/ha, visually evaluated after 12 to 14 days, 0 = no effect, 100 = complete control
Outline: as §2

[27] = test system: smallflower flatsedge (Cyperus difformis); assay: Test C flooded paddy test; details: for Flatsedge plant response rating: Flooded Paddy, Rate 500 g/ha, scale 0 to 100, 0 no effect, 100 complete control; for Plant response rating, Flatsedge / Plant response rating (scale 0 to 100), Flatsedge: flooded paddy test; for Plant response rating, Flatsedge: scale 0 to 100 (0 no effect, 100 complete control); for Plant response rating (scale 0 to 100), Flatsedge: Rate 62 g/ha, visually evaluated after 12 to 14 days, 0 = no effect, 100 = complete control
Outline: as §2

[28] = Rate 125 g/ha, scale 0 to 100, 0 no effect, 100 complete control
[29] = Rate 500 g/ha, scale 0 (no effect) to 100 (complete control), 13 to 15 days
[30] = Preemergence, Rate 500 g/ha, scale 0 to 100, 0 no effect, 100 complete control
[31] = preemergence, Rate 125 g/ha, scale of 0 to 100 where 0 is no effect and 100 is complete control, 13 to 15 days

COc1cc(C)nc(N2CCC(n3ccc(C(C)(C)C)n3)C2=O)n1 (centres unmarked) [Compound 137]
Plant response rating, Surinam grass [1, 28]: 0
Plant response rating, Surinam grass [1, 29]: 0
Plant response rating, Barnyardgrass [2, 28]: 0
Plant response rating, Barnyardgrass [2, 29]: 0
Plant response rating, Blackgrass [3, 28]: 0
Plant response rating, Blackgrass [3, 29]: 0
Plant response rating, Cocklebur [4, 28]: 0
Plant response rating, Cocklebur [4, 29]: 0
Plant response rating, Corn (corn (Zea mays) [5]; [28]): 0
Plant response rating, Corn (corn (Zea mays) [5]; [29]): 0
Plant response rating, Crabgrass [6, 28]: 0
Plant response rating, Crabgrass [6, 29]: 0
Plant response rating, Foxtail, Giant [7, 28]: 0
Plant response rating, Foxtail, Giant [7, 29]: 90
Plant response rating, Lambsquarters [8, 28]: 0
Plant response rating, Lambsquarters [8, 29]: 0
Plant response rating, Morningglory [9, 28]: 0
Plant response rating, Morningglory [9, 29]: 0
Plant response rating, Pigweed [10, 28]: 0
Plant response rating, Pigweed [10, 29]: 0
Plant response rating, Velvetleaf [11, 28]: 0
Plant response rating, Velvetleaf [11, 29]: 0
Plant response rating, Wheat [12, 28]: 0
Plant response rating, Wheat [12, 29]: 0
Plant response rating, Wild Oat (wild oat (Avena fatua); [28]): 0
Plant response rating, Wild Oat (wild oat (Avena fatua); [29]): 0
Plant response rating, Surinam grass [13, 30]: 50
Plant response rating, Surinam grass [13, 31]: 0
Plant response rating, Barnyardgrass [14, 30]: 40
Plant response rating, Barnyardgrass [14, 31]: 0
Plant response rating, Cocklebur [15, 30]: 80
Plant response rating, Cocklebur [15, 31]: 0
Plant response rating, Corn (corn (Zea mays) [16]; [30]): 0
Plant response rating, Corn (corn (Zea mays) [16]; [31]): 0
Plant response rating, Crabgrass [17, 30]: 80
Plant response rating, Crabgrass [17, 31]: 0
Plant response rating, Foxtail, Giant [18, 30]: 0
Plant response rating, Foxtail, Giant [18, 31]: 0
Plant response rating, Lambsquarters [19, 30]: 0
Plant response rating, Lambsquarters [19, 31]: 0
Plant response rating, Morningglory [20, 30]: 0
Plant response rating, Morningglory [20, 31]: 0
Plant response rating, Pigweed [21, 30]: 0
Plant response rating, Pigweed [21, 31]: 0
Plant response rating, Rice (rice (Oryza saliva) [22]; [30]): 70
Plant response rating, Rice (rice (Oryza saliva) [22]; [31]): 30
Plant response rating, Velvetleaf [23, 30]: 80
Plant response rating, Velvetleaf [23, 31]: 0
Barnyardgrass plant response rating [24]: 0
Plant response rating, Barnyardgrass ([24]; Rate 125 g/ha): 0
Plant response rating, Barnyardgrass ([24]; Rate 250 g/ha): 0
Plant response rating (scale 0 to 100), Barnyardgrass [24]: 0
Ducksalad plant response rating [25]: 0
Plant response rating, Ducksalad ([25]; Rate 125 g/ha): 0
Plant response rating, Ducksalad ([25]; Rate 250 g/ha): 0
Plant response rating (scale 0 to 100), Ducksalad [25]: 0
Rice plant response rating (rice (Oryza saliva) [26]): 0
Plant response rating, Rice (rice (Oryza saliva) [26]; Rate 125 g/ha): 0
Plant response rating, Rice (rice (Oryza saliva) [26]; Rate 250 g/ha): 0
Plant response rating (scale 0 to 100), Rice (rice (Oryza saliva) [26]): 0
Flatsedge plant response rating [27]: 0
Plant response rating, Flatsedge ([27]; Rate 125 g/ha): 0
Plant response rating, Flatsedge ([27]; Rate 250 g/ha): 0
Plant response rating (scale 0 to 100), Flatsedge [27]: 0

CC(C)(C)c1ccn(C2CCN(c3ccc(F)c(C(F)(F)F)c3)C2=O)n1 (centres unmarked) [Compound 146]
Plant response rating, Surinam grass [1, 28]: 0
Plant response rating, Surinam grass [1, 29]: 0
Plant response rating, Barnyardgrass [2, 28]: 0
Plant response rating, Barnyardgrass [2, 29]: 90
Plant response rating, Blackgrass [3, 28]: 0
Plant response rating, Blackgrass [3, 29]: 0
Plant response rating, Cocklebur [4, 28]: 0
Plant response rating, Cocklebur [4, 29]: 0
Plant response rating, Corn (corn (Zea mays) [5]; [28]): 0
Plant response rating, Corn (corn (Zea mays) [5]; [29]): 0
Plant response rating, Crabgrass [6, 28]: 0
Plant response rating, Crabgrass [6, 29]: 60
Plant response rating, Foxtail, Giant [7, 28]: 0
Plant response rating, Foxtail, Giant [7, 29]: 70
Plant response rating, Lambsquarters [8, 28]: 80
Plant response rating, Lambsquarters [8, 29]: 100
Plant response rating, Morningglory [9, 28]: 0
Plant response rating, Morningglory [9, 29]: 0
Plant response rating, Pigweed [10, 28]: 0
Plant response rating, Pigweed [10, 29]: 70
Plant response rating, Velvetleaf [11, 28]: 0
Plant response rating, Velvetleaf [11, 29]: 0
Plant response rating, Wheat [12, 28]: 0
Plant response rating, Wheat [12, 29]: 0
Plant response rating, Wild Oat (wild oat (Avena fatua); [28]): 0
Plant response rating, Wild Oat (wild oat (Avena fatua); [29]): 0
Plant response rating, Surinam grass [13, 30]: 100
Plant response rating, Surinam grass [13, 31]: 40
Plant response rating, Barnyardgrass [14, 30]: 100
Plant response rating, Barnyardgrass [14, 31]: 90
Plant response rating, Cocklebur [15, 30]: 0
Plant response rating, Cocklebur [15, 31]: 0
Plant response rating, Corn (corn (Zea mays) [16]; [30]): 0
Plant response rating, Corn (corn (Zea mays) [16]; [31]): 0
Plant response rating, Crabgrass [17, 30]: 100
Plant response rating, Crabgrass [17, 31]: 100
Plant response rating, Foxtail, Giant [18, 30]: 100
Plant response rating, Foxtail, Giant [18, 31]: 100
Plant response rating, Lambsquarters [19, 30]: 100
Plant response rating, Lambsquarters [19, 31]: 100
Plant response rating, Morningglory [20, 30]: 40
Plant response rating, Morningglory [20, 31]: 0
Plant response rating, Pigweed [21, 30]: 100
Plant response rating, Pigweed [21, 31]: 100
Plant response rating, Rice (rice (Oryza saliva) [22]; [30]): 0
Plant response rating, Rice (rice (Oryza saliva) [22]; [31]): 0
Plant response rating, Velvetleaf [23, 30]: 20
Plant response rating, Velvetleaf [23, 31]: 0
Barnyardgrass plant response rating [24]: 100
Plant response rating, Barnyardgrass ([24]; Rate 125 g/ha): 100
Plant response rating, Barnyardgrass ([24]; Rate 250 g/ha): 100
Plant response rating (scale 0 to 100), Barnyardgrass [24]: 75
Ducksalad plant response rating [25]: 90
Plant response rating, Ducksalad ([25]; Rate 125 g/ha): 65
Plant response rating, Ducksalad ([25]; Rate 250 g/ha): 80
Plant response rating (scale 0 to 100), Ducksalad [25]: 40
Rice plant response rating (rice (Oryza saliva) [26]): 85
Plant response rating, Rice (rice (Oryza saliva) [26]; Rate 125 g/ha): 50
Plant response rating, Rice (rice (Oryza saliva) [26]; Rate 250 g/ha): 50
Plant response rating (scale 0 to 100), Rice (rice (Oryza saliva) [26]): 15
Flatsedge plant response rating [27]: 95
Plant response rating, Flatsedge ([27]; Rate 125 g/ha): 95
Plant response rating, Flatsedge ([27]; Rate 250 g/ha): 95
Plant response rating (scale 0 to 100), Flatsedge [27]: 60
